From ChEMBL document CHEMBL4190198, “Celastrofurans A-G: Dihydro-β-agarofurans from the Australian Rainforest Vine Celastrus subspicata and Their Inhibitory Effect on Leucine Transport in Prostate Cancer Cells” (J Nat Prod, 2017)

assay: Inhibition of L-type amino acid transporter in human LNCAP cells assessed as reduction in [3H]-L-Leucine uptake after 15 mins by liquid scintillation counting method; format: cell-based

SMILES	IC50
CC(=O)O[C@@H]1C[C@@H](C)[C@@]23C[C@@H](C[C@H](OC(=O)c4ccccc4)[C@]2(C)[C@H]1OC(=O)c1ccoc1)C(C)(C)O3	34.5 µM
C[C@@H]1CC[C@H](OC(=O)c2ccoc2)[C@@]2(C)[C@@H](OC(=O)c3ccccc3)C[C@@H]3C[C@]12OC3(C)C	19.7 µM
CC(=O)O[C@@H]1C[C@@H](C)[C@@]23C[C@@H]([C@@H](O)[C@H](OC(=O)c4ccccc4)[C@]2(C)[C@H]1OC(=O)c1ccoc1)C(C)(C)O3	98.9 µM
CC(=O)O[C@@H]1[C@@H]2C[C@]3(OC2(C)C)[C@H](C)C[C@@H](OC(C)=O)[C@H](OC(=O)c2ccoc2)[C@@]3(C)[C@H]1OC(=O)c1ccccc1	15.2 µM
C[C@@H]1CC[C@H](OC(=O)c2ccccc2)[C@@]2(C)[C@@H](OC(=O)c3ccccc3)C[C@@H]3C[C@]12OC3(C)C	27.6 µM

Continued by falling IC50, values first:

IC50	SMILES
82.3 µM	CC(=O)O[C@@H]1C[C@@H](C)[C@@]23C[C@@H]([C@@H](O)[C@H](OC(=O)c4ccccc4)[C@]2(C)[C@H]1OC(=O)c1ccccc1)C(C)(C)O3
75.3 µM	CC(=O)O[C@@H]1C[C@@H](C)[C@@]23C[C@@H](C[C@H](OC(=O)c4ccoc4)[C@]2(C)[C@H]1OC(=O)c1ccoc1)C(C)(C)O3
13.4 µM	CC(=O)O[C@@H]1C[C@@H](C)[C@@]23C[C@@H](C(=O)[C@H](OC(=O)c4ccccc4)[C@]2(C)[C@H]1OC(=O)c1ccoc1)C(C)(C)O3
7 µM	CC(=O)O[C@@H]1C[C@@H](C)[C@@]23C[C@@H](C[C@H](OC(=O)c4ccccc4)[C@]2(C)[C@H]1OC(=O)c1ccccc1)C(C)(C)O3
